From patent publication US9771334B2, “Triketone compound and preparation method and use thereof” (SHANDONG CYNDA CHEMICAL CO., LTD., priority 2013, dated 2017)

How the values were obtained:
Format in all cases: in vivo
wheat = assay: Crop safety test (pot culture method); details: plants with about 4-5 leaves, investigated 15 days later
Text: (§1) This test example is for describing crop safety of the compound with a structure shown in Formula (1). Crop safety test method (pot culture method): The test targets are wheat and maize. Take flowerpots with an inner diameter of 12 cm, put composite soil (vegetable garden soil:seedling matrix=1:2, v/v) into them till ¾ of flowerpot height, directly sow the crop seeds (budding rate>85%), cover them with 0.2 cm thick soil, and keep the plants for future use when they grow to have about 4-5 leaves. Each compound is dissolved in N,N-dimethylformamide at doses of 75 g/ha or 150 g/ha and diluted with distilled water containing 0.1% tween-80 emulsifier to form 0.1 g/L (75 g/ha) solution and 0.2 g/L (150 g/ha) solution respectively. The solutions are sprayed through an automatic spray tower. After the solutions on weed leaves are dried in the air, the flowerpots are moved into a greenhouse for cultivation. The result is investigated 15 days later.

maize = assay: Crop safety test (pot culture method); details: plants with about 4-5 leaves, investigated 15 days later
Text: as §1

amaranthus retroflexus = assay: Herbicidal activity, pot culture method (primary and secondary screening test); details: sprayed at 3-leaf stage; for inhibition ratio, Amaranthus retroflexus: investigated 15 days later; for herbicidal activity inhibition ratio (%), Amaranthus retroflexus: primary screening, pot culture, 150 g/ha, result 15 days later
Procedure, shortened: (§2)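 Weeds were sown in 1:2 garden soil:seedling matrix and sprayed at the 3-leaf stage by automatic spray tower. Compounds were dissolved in DMF and diluted in water to 0.2 g/L, dosed at 150 g/ha; the secondary screen used a reduced dose. Inhibition ratio (%) was assessed after 15 days in the greenhouse.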

setaria viridis = assay: as above; details: for inhibition ratio, Setaria viridis / herbicidal activity inhibition ratio (%), Setaria viridis: sprayed at 3-leaf stage; for inhibition ratio, Setaria viridis: investigated 15 days later; for herbicidal activity inhibition ratio (%), Setaria viridis: primary screening, pot culture, 150 g/ha, result 15 days later
Procedure, shortened: as §2

abutilon theophrasti = assay: as above; details: sprayed at 3-leaf stage; for inhibition ratio, Abutilon theophrasti: investigated 15 days later; for herbicidal activity inhibition ratio (%), Abutilon theophrasti: primary screening, pot culture, 150 g/ha, result 15 days later
Procedure, shortened: as §2

echinochloa crusgalli = assay: as above; details: sprayed at 3-leaf stage; for inhibition ratio, Echinochloa crusgalli: investigated 15 days later; for herbicidal activity inhibition ratio (%), Echinochloa crusgalli: primary screening, pot culture, 150 g/ha, result 15 days later
Procedure, shortened: as §2

digitaria sanguinalis = assay: as above; details: sprayed at 3-leaf stage; for inhibition ratio, Digitaria sanguinalis: investigated 15 days later; for herbicidal activity inhibition ratio (%), Digitaria sanguinalis: primary screening, pot culture, 150 g/ha, result 15 days later
Procedure, shortened: as §2

eclipta prostrata = assay: as above; details: sprayed at 3-leaf stage; for inhibition ratio, Eclipta prostrata: investigated 15 days later; for herbicidal activity inhibition ratio (%), Eclipta prostrata: primary screening, pot culture, 150 g/ha, result 15 days later
Procedure, shortened: as §2

SMILES	inhibition ratio, Wheat (crop safety) (wheat; dose 75 g/ha) [%]	inhibition ratio, Wheat (crop safety) (wheat; dose 150 g/ha) [%]	inhibition ratio, Maize (crop safety) (maize; dose 75 g/ha) [%]	inhibition ratio, Maize (crop safety) (maize; dose 150 g/ha) [%]	inhibition ratio, Amaranthus retroflexus (amaranthus retroflexus; dose 37.5 g/ha) [%]	inhibition ratio, Amaranthus retroflexus (amaranthus retroflexus; dose 75 g/ha) [%]	herbicidal activity inhibition ratio (%), Amaranthus retroflexus (amaranthus retroflexus) [%]	inhibition ratio, Setaria viridis (setaria viridis; dose 37.5 g/ha) [%]	inhibition ratio, Setaria viridis (setaria viridis; dose 75 g/ha) [%]	herbicidal activity inhibition ratio (%), Setaria viridis (setaria viridis) [%]	inhibition ratio, Abutilon theophrasti (abutilon theophrasti; dose 37.5 g/ha) [%]	inhibition ratio, Abutilon theophrasti (abutilon theophrasti; dose 75 g/ha) [%]	herbicidal activity inhibition ratio (%), Abutilon theophrasti (abutilon theophrasti) [%]	inhibition ratio, Echinochloa crusgalli (echinochloa crusgalli; dose 37.5 g/ha) [%]	inhibition ratio, Echinochloa crusgalli (echinochloa crusgalli; dose 75 g/ha) [%]	herbicidal activity inhibition ratio (%), Echinochloa crusgalli (echinochloa crusgalli) [%]	inhibition ratio, Digitaria sanguinalis (digitaria sanguinalis; dose 37.5 g/ha) [%]	inhibition ratio, Digitaria sanguinalis (digitaria sanguinalis; dose 75 g/ha) [%]	inhibition ratio, Eclipta prostrata (eclipta prostrata; dose 37.5 g/ha) [%]	inhibition ratio, Eclipta prostrata (eclipta prostrata; dose 75 g/ha) [%]	other results
CC(C)c1ccccc1-n1c(=O)c2cc(C(=O)C3=C(O)CCCC3=O)ccc2n(C)c1=O [Compound 65]	0	10	0	10	50	60	90	80	85	98	50	70	98	95	100	80	30	40	30	50	herbicidal activity inhibition ratio (%), Digitaria sanguinalis (digitaria sanguinalis): 100%; herbicidal activity inhibition ratio (%), Eclipta prostrata (eclipta prostrata): 80%
CCn1c(=O)n(-c2ccccc2C)c(=O)c2cc(C(=O)C3=C(O)CCCC3=O)ccc21 [Compound 66]	0	10	0	5	90	100	93	97.5	100	100	100	100	100	100	100	100	60	97.5	95	100	herbicidal activity inhibition ratio (%), Digitaria sanguinalis (digitaria sanguinalis): 95%; herbicidal activity inhibition ratio (%), Eclipta prostrata (eclipta prostrata): 95%
CCn1c(=O)n(-c2ccccc2C)c(=O)c2cc(C(=O)C3=C(O)CC(C)CC3=O)ccc21 (stereo not drawn) [Compound 70]	0	10	0	15	50	70	98	83	93	100	50	73	100	40	55	100	80	75	60	78	herbicidal activity inhibition ratio (%), Digitaria sanguinalis (digitaria sanguinalis): 90%; herbicidal activity inhibition ratio (%), Eclipta prostrata (eclipta prostrata): 100%
Cc1c(C(=O)C2=C(O)CC(C)(C)CC2=O)ccc2c1c(=O)n(-c1ccccc1C(F)(F)F)c(=O)n2C [Compound 91]	0	10	0	10	60	80	100	100	100	100	85	93	100	65	90	100	70	90	80	93	herbicidal activity inhibition ratio (%), Digitaria sanguinalis (digitaria sanguinalis): 100%; herbicidal activity inhibition ratio (%), Eclipta prostrata (eclipta prostrata): 100%
CS(=O)(=O)c1ccc(C(=O)C2C(=O)CCCC2=O)c([N+](=O)[O-])c1 [Mesotrione, mesotrione, reference compound]	10	40	7	15	70	75	–	0	0	–	100	100	–	50	70	–	40	70	75	85	prevention and control of setaria viridis (in words) (setaria viridis; secondary screening, 37.5 and 75 g/ha): cannot be prevented and controlled
